The values below come from ChEMBL document CHEMBL1152116, “Novel benzimidazole-4-carboxylic acid derivatives as potent and selective 5-HT3 receptor ligands” (Bioorg Med Chem Lett, 1996).

Some results are limits rather than exact numbers.

The target of assay [1] is 5-hydroxytryptamine receptor 4 (Rattus norvegicus, UniProt Q62758). The assay is described as follows: Displacement of [3H]GR-113808 from rat striatum 5-hydroxytryptamine 4 receptor. (Loss of bound radioactivity is the signal in a displacement assay; it reports binding, not function.)
Sequence of 5-hydroxytryptamine receptor 4 (Q62758 whole entry): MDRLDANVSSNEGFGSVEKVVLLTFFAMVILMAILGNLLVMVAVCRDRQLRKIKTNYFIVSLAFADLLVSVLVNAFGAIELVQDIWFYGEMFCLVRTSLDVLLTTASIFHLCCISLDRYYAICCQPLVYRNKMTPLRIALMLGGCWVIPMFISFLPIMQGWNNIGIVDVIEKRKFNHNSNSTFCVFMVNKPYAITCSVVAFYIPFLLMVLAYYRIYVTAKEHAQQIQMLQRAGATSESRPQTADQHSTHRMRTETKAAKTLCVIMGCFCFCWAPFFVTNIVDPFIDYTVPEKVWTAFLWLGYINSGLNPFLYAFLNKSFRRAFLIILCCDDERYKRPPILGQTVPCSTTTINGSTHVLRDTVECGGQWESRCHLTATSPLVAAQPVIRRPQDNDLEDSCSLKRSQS
Assay [2] deals with T1, Serotonin 3 (5-HT3) receptor (Rattus norvegicus, UniProt P35563+Q9JJ16).
T1 sequence (P35563 whole entry): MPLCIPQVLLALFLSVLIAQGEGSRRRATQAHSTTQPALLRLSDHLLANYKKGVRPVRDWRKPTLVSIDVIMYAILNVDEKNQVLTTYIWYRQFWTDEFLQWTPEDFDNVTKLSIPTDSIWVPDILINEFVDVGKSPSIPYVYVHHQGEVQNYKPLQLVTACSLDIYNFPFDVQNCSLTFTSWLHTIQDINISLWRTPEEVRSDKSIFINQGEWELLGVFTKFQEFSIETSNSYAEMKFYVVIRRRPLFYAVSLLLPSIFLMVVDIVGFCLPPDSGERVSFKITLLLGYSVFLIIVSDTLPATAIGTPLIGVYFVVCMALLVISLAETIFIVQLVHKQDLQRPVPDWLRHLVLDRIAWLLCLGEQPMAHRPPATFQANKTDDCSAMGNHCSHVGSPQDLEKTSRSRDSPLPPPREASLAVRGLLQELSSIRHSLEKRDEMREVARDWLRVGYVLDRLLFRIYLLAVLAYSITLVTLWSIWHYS
T1 sequence (Q9JJ16 whole entry): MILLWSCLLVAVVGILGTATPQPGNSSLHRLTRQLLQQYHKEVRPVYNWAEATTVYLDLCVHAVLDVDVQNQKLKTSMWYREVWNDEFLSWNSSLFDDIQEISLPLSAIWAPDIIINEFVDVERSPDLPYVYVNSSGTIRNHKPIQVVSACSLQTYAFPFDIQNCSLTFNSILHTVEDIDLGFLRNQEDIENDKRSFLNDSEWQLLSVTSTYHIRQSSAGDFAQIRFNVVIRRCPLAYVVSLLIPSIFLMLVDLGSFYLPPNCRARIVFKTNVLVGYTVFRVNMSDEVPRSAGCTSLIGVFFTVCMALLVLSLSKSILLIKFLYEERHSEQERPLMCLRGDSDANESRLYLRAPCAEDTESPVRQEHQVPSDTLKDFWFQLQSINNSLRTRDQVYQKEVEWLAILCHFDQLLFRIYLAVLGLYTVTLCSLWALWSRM
Briefly: In vitro displacement of [3H]-LY 278584 from rat cerebral cortex 5-hydroxytryptamine 3 receptor. Format: tissue-based.

What is called Ki is a dissociation constant, usually derived from enzyme kinetics or from competition with a known ligand. Read a low Ki as a stronger hold on the target. For the compound `CN1C2CCCC1CC(NC(=O)c1cc(Cl)cc3nc[nH]c13)C2` (stereo not given), the inhibitory constant (Ki) was 167 nM in assay [1] and 154 nM in assay [2].
The corresponding values for `CN1CCC(NC(=O)c2cc(Cl)cc3[nH]cnc23)CC1` are 54 nM and 29.5 nM.
The corresponding values for `O=C(NC1CN2CCC1CC2)c1cccc2nc[nH]c12` (stereo not given) are greater than 1000 nM and 3.7 nM.
The corresponding values for `CN1C2CCCC1CC(OC(=O)c1cc(Cl)cc3[nH]cnc13)C2` (stereo not given) are greater than 1000 nM and 4.9 nM.
In the case of `CN1C2CCCC1CC(OC(=O)c1cccc3nc[nH]c13)C2` (stereo not given), the Ki was greater than 10000 nM in assay [1] and 129 nM in assay [2].
As for `CN1[C@@H]2CC[C@H]1C[C@@H](OC(=O)c1c[nH]c3ccccc13)C2` [TROPISETRON], the Ki in assay [1] stood at 63 nM.
Regarding `O=C(NC1CN2CCC1CC2)c1cc(Cl)cc2nc[nH]c12` (stereo not given), the Ki in assay [1] is 168 nM; in assay [2], 0.29 nM.
In the case of `CN1CCC(NC(=O)c2cccc3[nH]cnc23)CC1`, the Ki came to 719 nM in assay [1] and 145 nM in assay [2].
`COc1cc(N)c(Cl)cc1C(=O)NC1CN2CCC1CC2` (stereo not given) [ZACOPRIDE] gave a Ki in assay [1] of 158 nM.
Consider `CN1CCC(OC(=O)c2cccc3nc[nH]c23)CC1`, for which the inhibitory constant (Ki) in assay [1] is greater than 10000 nM; in assay [2], greater than 1000 nM.
Take `CN1C2CCCC1CC(NC(=O)c1cccc3[nH]cnc13)C2` (stereo not given): the results for the Ki in assay [1] and in assay [2] were greater than 1000 nM and 6.1 nM, respectively.
